From PubChem BioAssay AID330 (DTP/NCI, 2004)
Several values for one entry are separate records, joined by “and”; a condition that tells them apart may be missing. Identical values can stand only once. Inconclusive results and toxic doses are left out. The calls were made as follows: active = survival T/C of 150% or more; inactive = T/C below 125% in these data. Peptide text beside a SMILES is read from it.

Tested on: P388 leukemia ip, CD2F1 mice, survival T/C
Test: NCI In Vivo Anticancer Drug Screen. Data for tumor model P388 Leukemia (intraperitoneal) in CD2F1 (CDF1) mice
Details: endpoint: median survival time, higher = longer survival
How it was run: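 Mice carrying the transplanted tumor received test compound or vehicle. Survival was recorded in each group, and the value is the treated-group measurement divided by that of the vehicle-treated control group.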

[1] = dose: 50.0 mg/kg/injection, schedule: Q01DX005 (ip), vehicle: saline with Tween-80
[2] = dose: 100.0 mg/kg/injection, schedule: Q01DX005 (ip), vehicle: saline with Tween-80
[3] = dose: 200.0 mg/kg/injection, schedule: Q01DX005 (ip), vehicle: saline with Tween-80
[4] = dose: 25.0 mg/kg/injection, schedule: Q01DX009 (ip), vehicle: saline with Tween-80
[5] = dose: 100.0 mg/kg/injection, schedule: Q01DX009 (ip), vehicle: saline with Tween-80
[6] = dose: 200.0 mg/kg/injection, schedule: Q01DX009 (ip), vehicle: saline with Tween-80
[7] = dose: 60.0 mg/kg/injection, schedule: Q01DX005 (ip), vehicle: saline with Tween-80
[8] = dose: 120.0 mg/kg/injection, schedule: Q01DX005 (ip), vehicle: saline with Tween-80

Measured: T/C

CCNCc1c2c(O)c3c(O)c(C)c4c(c3c1O)C(=O)C(C)(O/C=C/C(OC)C(C)C(OC(C)=O)C(C)C(O)C(C)C(O)C(C)/C=C/C=C(/C)C(=O)N2)O4 (stereo unspecified)
inactive: dose: 25.0 mg/kg/injection, schedule: Q01DX009 (ip), vehicle: other 89 % of control | dose: 50.0 mg/kg/injection, schedule: Q01DX009 (ip), vehicle: other 89 % of control | dose: 100.0 mg/kg/injection, schedule: Q01DX009 (ip), vehicle: other 89 % of control | dose: 200.0 mg/kg/injection, schedule: Q01DX009 (ip), vehicle: other 89 % of control | dose: 400.0 mg/kg/injection, schedule: Q01DX009 (ip), vehicle: other 90 % of control

CC(c1ccccc1)c1cc(C(C)(C)C)c(O)c(C(C)(C)C)c1 (stereo unspecified)
inactive: dose: 50.0 mg/kg/injection, schedule: Q01DX005 (ip), vehicle: distilled water + alcohol 100 % of control | dose: 100.0 mg/kg/injection, schedule: Q01DX005 (ip), vehicle: distilled water + alcohol 99 % of control | dose: 200.0 mg/kg/injection, schedule: Q01DX005 (ip), vehicle: distilled water + alcohol 93 % of control

Cc1ccccc1NC(=O)Nc1sc(=S)c2c(c1C#N)CCCC2
inactive: [1] 94 % of control | [2] 103 % of control | [3] 103 % of control

O=C1CCCCCC1Cc1cc(O)c(CC2CCCCCC2=O)cc1O (stereo unspecified)
inactive: [4] 96 % of control | dose: 50.0 mg/kg/injection, schedule: Q01DX009 (ip), vehicle: saline with Tween-80 93 % of control | [5] 98 % of control | [6] 94 % of control

CCCCCCCCCCCCCCCCC1CCCC1C1CCCC1 (stereo unspecified)
inactive: dose: 12.5 mg/kg/injection, schedule: Q01DX001 (ip), vehicle: saline with Tween-80 104 % of control | dose: 25.0 mg/kg/injection, schedule: Q01DX001 (ip), vehicle: saline with Tween-80 104 % of control | dose: 50.0 mg/kg/injection, schedule: Q01DX001 (ip), vehicle: saline with Tween-80 104 % of control

CCOC(=O)C1C(=O)N2C(=O)C(NC(C)=O)=C(O)C2C1c1ccc(Cl)cc1 (stereo unspecified)
inactive: dose: 100.0 mg/kg/injection, schedule: Q04DX002 (ip), vehicle: saline with Tween-80 100 % of control | dose: 200.0 mg/kg/injection, schedule: Q04DX002 (ip), vehicle: saline with Tween-80 105 % of control | dose: 400.0 mg/kg/injection, schedule: Q04DX002 (ip), vehicle: saline with Tween-80 98 % of control

O=C1NC(=O)[C@@]2(CC[C@@H](O)C2)c2ccncc21
inactive: dose: 1.5 mg/kg/injection, schedule: Q01DX009 (ip), vehicle: DMSO 89 % of control | dose: 3.0 mg/kg/injection, schedule: Q01DX009 (ip), vehicle: DMSO 93 % of control | dose: 6.0 mg/kg/injection, schedule: Q01DX009 (ip), vehicle: DMSO 101 % of control | dose: 12.0 mg/kg/injection, schedule: Q01DX009 (ip), vehicle: DMSO 95 % of control | dose: 25.0 mg/kg/injection, schedule: Q01DX005 (ip), vehicle: DMSO 91 % of control | dose: 50.0 mg/kg/injection, schedule: Q01DX005 (ip), vehicle: DMSO 96 % of control | dose: 100.0 mg/kg/injection, schedule: Q01DX005 (ip), vehicle: DMSO 93 % of control | dose: 200.0 mg/kg/injection, schedule: Q01DX005 (ip), vehicle: DMSO 92 % of control

CNc1ccccc1C(=O)N1CCc2c([nH]c3ccccc23)C1=O
inactive: [4] 98 % of control | [5] 93 % of control

O=c1oc2ccccc2c2c1C(c1ccc3c(c1)OCO3)C=C(c1ccc3c(c1)OCO3)O2 (stereo unspecified)
inactive: dose: 25.0 mg/kg/injection, schedule: Q01DX009 (ip), vehicle: water 94 % of control | dose: 50.0 mg/kg/injection, schedule: Q01DX009 (ip), vehicle: water 94 % of control | dose: 100.0 mg/kg/injection, schedule: Q01DX009 (ip), vehicle: water 94 % of control | dose: 200.0 mg/kg/injection, schedule: Q01DX009 (ip), vehicle: water 92 % of control

Cc1cc(C)n(-c2ccc(S(=O)(=O)N3CCC(=O)N(Cc4ccccc4)C3=S)cc2)n1
inactive: [1] 100 % of control | [2] 93 % of control | [3] 93 % of control

CN(C)C1C(O)C2Oc3c(cc(O)c4c3C(=O)c3cc5c(c(O)c3C4=O)C(OCCN)CC(C)(O)C5)C(C)(O2)C1O (stereo unspecified)
inactive: dose: 5.0 mg/kg/injection, schedule: Q01DX009 (ip), vehicle: other 99 % of control | dose: 10.0 mg/kg/injection, schedule: Q01DX009 (ip), vehicle: other 101 % of control | dose: 20.0 mg/kg/injection, schedule: Q01DX009 (ip), vehicle: other 106 % of control | dose: 40.0 mg/kg/injection, schedule: Q01DX009 (ip), vehicle: other 117 % of control

Cc1cc(Br)c2c(c1)C(C(F)(F)F)(C(F)(F)F)OC(C)(C)N2
inactive: dose: 50.0 mg/kg/injection, schedule: Q01DX009 (ip), vehicle: Klucel (hydroxypropylcellulose) (HPC) 94 % of control | dose: 100.0 mg/kg/injection, schedule: Q01DX009 (ip), vehicle: Klucel (hydroxypropylcellulose) (HPC) 100 % of control | dose: 200.0 mg/kg/injection, schedule: Q01DX009 (ip), vehicle: Klucel (hydroxypropylcellulose) (HPC) 101 % of control

c1cc[n+](CC[n+]2ccccn2)nc1
inactive: dose: 12.5 mg/kg/injection, schedule: Q01DX001 (ip), vehicle: saline 108 % of control and 111 % of control and 95 % of control | dose: 25.0 mg/kg/injection, schedule: Q01DX001 (ip), vehicle: saline 100 % of control (2×) and 122 % of control | dose: 50.0 mg/kg/injection, schedule: Q01DX001 (ip), vehicle: saline 100 % of control and 101 % of control and 92 % of control

CC(C)C(NC(=O)C(N)CCC(=O)O)C(=O)O (stereo not drawn) (H-Glu-Val-OH; configuration not given here)
inactive: [1] 93 % of control | [2] 100 % of control | [3] 93 % of control

COc1ccc(-c2c(-c3ccccc3)c(=O)oc3cc(OC)ccc23)cc1
inactive: [7] 91 % of control | [8] 87 % of control and 88 % of control

CCCCCCCCCCN=Cc1c(O)c(O)c(CCC)c2cc(C)c(-c3c(C)cc4c(CCC)c(O)c(O)c(C=NCCCCCCCCCC)c4c3O)c(O)c12
inactive: dose: 25.0 mg/kg/injection, schedule: Q01DX005 (ip), vehicle: Klucel (hydroxypropylcellulose) (HPC) 100 % of control | dose: 50.0 mg/kg/injection, schedule: Q01DX005 (ip), vehicle: Klucel (hydroxypropylcellulose) (HPC) 95 % of control | dose: 100.0 mg/kg/injection, schedule: Q01DX005 (ip), vehicle: Klucel (hydroxypropylcellulose) (HPC) 98 % of control | dose: 200.0 mg/kg/injection, schedule: Q01DX005 (ip), vehicle: Klucel (hydroxypropylcellulose) (HPC) 95 % of control

O=S(=O)(N1CCCCC1)n1nnc2cc3ccccc3cc21
inactive: dose: 50.0 mg/kg/injection, schedule: Q01DX009 (ip), vehicle: acetone 98 % of control | dose: 100.0 mg/kg/injection, schedule: Q01DX009 (ip), vehicle: acetone 97 % of control | dose: 200.0 mg/kg/injection, schedule: Q01DX009 (ip), vehicle: acetone 97 % of control

CC1C(=O)C23CCC4C5(C)CCCC4(C4OCCN4C5)C2CCC1C3 (stereo unspecified)
inactive: dose: 1.0 mg/kg/injection, schedule: Q01DX009 (ip), vehicle: Klucel (hydroxypropylcellulose) (HPC) 99 % of control | dose: 2.0 mg/kg/injection, schedule: Q01DX009 (ip), vehicle: Klucel (hydroxypropylcellulose) (HPC) 97 % of control | dose: 4.0 mg/kg/injection, schedule: Q01DX009 (ip), vehicle: Klucel (hydroxypropylcellulose) (HPC) 98 % of control | dose: 8.0 mg/kg/injection, schedule: Q01DX009 (ip), vehicle: Klucel (hydroxypropylcellulose) (HPC) 97 % of control

O=C(Nc1ccccc1)c1nn(-c2cc(S(=O)(=O)[O-])ccc2Cl)[n+](-c2ccccc2Cl)n1
inactive: dose: 60.0 mg/kg/injection, schedule: Q01DX005 (ip), vehicle: Klucel (hydroxypropylcellulose) (HPC) 101 % of control | dose: 120.0 mg/kg/injection, schedule: Q01DX005 (ip), vehicle: Klucel (hydroxypropylcellulose) (HPC) 101 % of control

CCOc1c(N=Nc2cccc([N+](=O)[O-])c2)c(C)nn1C(N)=S
inactive: dose: 15.0 mg/kg/injection, schedule: Q01DX005 (ip), vehicle: Klucel + Tween-80 92 % of control | dose: 30.0 mg/kg/injection, schedule: Q01DX005 (ip), vehicle: Klucel + Tween-80 94 % of control

CCOC(=O)c1[nH]c(C#N)c(C(=O)OCC)c1C
inactive: [5] 86 % of control | [6] 96 % of control | dose: 400.0 mg/kg/injection, schedule: Q01DX009 (ip), vehicle: saline with Tween-80 105 % of control

Nc1nc(N)nc(CNc2c(Br)cc(Br)cc2Br)n1
inactive: [7] 93 % of control | [8] 101 % of control | dose: 240.0 mg/kg/injection, schedule: Q01DX005 (ip), vehicle: saline with Tween-80 90 % of control

CCOC(=O)/C(=N\N=P(N(C)C)(N(C)C)N(C)C)[As](C)C
inactive: dose: 50.0 mg/kg/injection, schedule: Q01DX009 (ip), vehicle: saline 103 % of control | dose: 100.0 mg/kg/injection, schedule: Q01DX009 (ip), vehicle: saline 99 % of control
